Laboratory results: the supplement of paper PMC9265050, “Inhibition of RNA Binding in SND1 Increases the Levels of miR-1-3p and Sensitizes Cancer Cells to Navitoclax” (Cancers, 2022)

System: SW480
Test: drug sensitivity score (DSS, integrated dose-response area); higher = more sensitive (stronger viability reduction); extreme values may be limits of the assay
Outline: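 SW480 cells stably carrying doxycycline-inducible control or SND1-targeting shRNA were induced with 0.1 µg/mL doxycycline for 7 days. They were then plated at 1000 cells per well in 384-well plates holding 525 commercially available small-molecule inhibitors at five concentrations. Viability was read with CellTiter-Glo after 72 h. The drug sensitivity score integrates the area under a fitted non-linear dose–response model.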

[1] = shRNA: SND1 shRNA1 (SND1 silenced)
[2] = shRNA: SND1 shRNA2 (SND1 silenced)
[3] = shRNA: control shRNA (non-targeting)

| Structure (SMILES) | drug sensitivity score [1] [DSS] | drug sensitivity score [2] [DSS] | drug sensitivity score [3] [DSS] |
| --- | --- | --- | --- |
| NC1(c2ccc(-c3nc4ccn5c(=O)[nH]nc5c4cc3-c3ccccc3)cc2)CCC1 [MK-2206] | 3.5 | 4.4 | 3.6 |
| O=c1[nH]c(=O)n([C@H]2C[C@H](O)[C@@H](CO)O2)cc1F [Floxuridine] | 12.8 | 3 | 4.3 |
| CNC(=O)c1ccc(C)c(-n2c(C)cc(OCc3ccc(F)cc3F)c(Br)c2=O)c1 | 0 | 1 | 0 |
| CN1CCc2c(c3ccccc3n2Cc2ccc(C(=O)NO)cc2)C1 [Tubastatin A] | 4.3 | 5 | 6.4 |
| Cc1cc(C)c(/C=C2\C(=O)Nc3ccccc32)[nH]1 [Semaxanib] | 0 | 0 | 0.6 |
| O=C(CCCCCCNC(=O)c1cnc(N(c2ccccc2)c2ccccc2)nc1)NO [Rocilinostat] | 4 | 7 | 8.4 |
| C[C@@H](Oc1cc(-c2cnn(C3CCNCC3)c2)cnc1N)c1c(Cl)ccc(F)c1Cl [Crizotinib] | 0.6 | 0.2 | 2.9 |
| COC(=O)c1ccc2c(c1)NC(=O)/C2=C(\Nc1ccc(N(C)C(=O)CN2CCN(C)CC2)cc1)c1ccccc1 [Nintedanib] | 8.4 | 6.8 | 0 |
| CN(CC(=O)N(Cc1ccc(C2CCCCC2)cc1)c1ccc(C(=O)O)cc1)S(=O)(=O)c1c(F)c(F)c(F)c(F)c1F [SH-4-54] | 9.8 | 8.6 | 9.5 |
| CCN(CC)CCN(Cc1ccc(-c2ccc(C(F)(F)F)cc2)cc1)C(=O)Cn1c(SCc2ccc(F)cc2)nc(=O)c2c1CCC2 [Darapladib] | 0.1 | 0 | 5.8 |
| Cn1c(CCCC(=O)O)nc2cc(N(CCCl)CCCl)ccc21 [Bendamustine] | 1.7 | 0.5 | 3.5 |
| COc1cccc2c1C(=O)c1c(O)c3c(c(O)c1C2=O)C[C@@](O)(/C(CO)=N/NC(=O)CCCCCN1C(=O)C=CC1=O)C[C@@H]3O[C@H]1C[C@H](N)[C@H](O)[C@H](C)O1 [Aldoxorubicin] | 7.5 | 5.7 | 8.4 |
| CC(C)NC(=O)COc1cccc(-c2nc(Nc3ccc4[nH]ncc4c3)c3ccccc3n2)c1 [SLx-2119] | 0 | 0 | 0 |
| C=CC(=O)Nc1cc(Nc2nccc(-c3cn(C)c4ccccc34)n2)c(OC)cc1N(C)CCN(C)C [Osimertinib] | 8.5 | 3.6 | 9.6 |
| CC[C@@H]1C(=O)OC[C@@H]1Cc1cncn1C [Pilocarpine] | 0.6 | 0 | 0.2 |
| CNC(=O)c1nn(C)c2c1C(C)(C)Cc1cnc(Nc3ccc(N4CCN(C)CC4)cc3)nc1-2 [Milciclib] | 11.4 | 10.9 | 9.2 |
| CC(=O)NCC(=O)N1[C@@H]2CC[C@H]1c1ccc(Nc3ncc(C(F)(F)F)c(NC4CCC4)n3)cc12 | 17.4 | 14.2 | 13.2 |
| CN(C)C[C@@H]1CCn2cc(c3ccccc32)C2=C(C(=O)NC2=O)c2cn(c3ccccc23)CCO1 [Ruboxistaurin] | 8.1 | 7.8 | 7.4 |
| Cc1cc(Nc2cc(N3CCN(C)CC3)nc(/C=C/c3ccccc3)n2)n[nH]1 [ENMD-2076] | 11.9 | 10.7 | 12 |
| CC(C)Oc1cc(Nc2nc(N[C@@H](C)c3ccc(F)cn3)ncc2Cl)n[nH]1 [AZ-23] | 3.1 | 1.9 | 4.5 |
| COc1cc(O)c2c(c1)/C=C/C[C@H](O)[C@H](O)C(=O)/C=C\C[C@H](C)OC2=O [(5Z)-7-Oxozeaenol] | 3.7 | 2.6 | 3.6 |
| O=NN(CCCl)C(=O)NCCCl [Carmustine] | 0 | 0 | 0.4 |
| O=S(=O)(c1cccc2cnccc12)N1CCCNCC1 [Fasudil] | 3.1 | 3 | 6 |
| CCNC(=O)Nc1ccc(-c2nc3c(c(N4CCOC[C@@H]4C)n2)CCN(C2COC2)C3)cc1 [RG-7603] | 0.7 | 1.3 | 0.7 |
| N#CC(c1ccnc(OCc2ccc(CN3CCOCC3)cc2)n1)c1nc2ccccc2s1 (centres undefined) [Bentamapimod] | 2.3 |  | 4 |

| Structure (SMILES) | drug sensitivity score [1] [DSS] | drug sensitivity score [2] [DSS] | drug sensitivity score [3] [DSS] |
| --- | --- | --- | --- |
| Nc1ncnc2c1nc(N)n2[C@@H]1O[C@H](CO)[C@@H](O)[C@H]1O [8-amino-adenosine] | 23.6 | 24.3 | 22.2 |
| Cc1cc(-c2ncc(-c3cccnc3)cc2/C=C/c2ccccc2)cnc1-c1cccnc1 [Pyridoclax] | 4.1 | 2.7 | 0.2 |
| c1ccc([C@H]2CN3CCSC3=N2)cc1 [Levamisole] | 0 | 0 | 0 |
| NS(=O)(=O)NCCNc1nonc1/C(=N/O)Nc1ccc(F)c(Br)c1 [Epacadostat] | 0 | 1.5 | 0.1 |
| CN(c1ccccc1CNc1nc(Nc2ccc3c(c2)CC(=O)N3)ncc1C(F)(F)F)S(C)(=O)=O | 9.7 | 8.3 | 9.2 |
| C[C@]12CC[C@@H]3c4ccc(OC(=O)N(CCCl)CCCl)cc4CC[C@H]3[C@@H]1CC[C@@H]2O [Estramustine] | 0 |  | 0 |
| Nc1cccc2c1CN(C1CCC(=O)NC1=O)C2=O (centres undefined) [Lenalidomide] | 0 | 0.1 | 2.3 |
| Nc1nc2[nH]cnc2c(=S)[nH]1 [Thioguanine] | 9.3 | 5.9 | 8.4 |
| Cc1cc(-c2nc(-c3ccc(OC(F)(F)F)cc3)no2)nn1Cc1ccnc(N2CCN(C3CC3)CC2)c1 [BAY 87-2243] | 0.3 | 21.9 | 1.1 |
| O=c1cc(N2CCOCC2)oc2c(-c3ccccc3)cccc12 | 8.9 | 9.9 | 8.3 |
| C#Cc1cccc(Nc2ncnc3cc(OCCOC)c(OCCOC)cc23)c1 [Erlotinib] | 2.6 | 2.5 | 2.4 |
| Cn1cc(C2=Nc3cc(NC(=O)C(N)C4CCCCC4)cc4c3C2=CNNC4=O)cn1 (centres undefined) | 8.3 | 8.3 | 10.7 |
| Cn1ncnc1[C@H]1c2n[nH]c(=O)c3cc(F)cc(c23)N[C@@H]1c1ccc(F)cc1 [Talazoparib] | 5.8 | 0 | 2.5 |
| CNC(=O)[C@@H](NC(=O)[C@H](CC(C)C)[C@H](O)C(=O)NO)C(C)(C)C [Marimastat] | 0 | 0 | 0 |
| CC1CCC(n2c3cnccc3c3cnc(Nc4ccc5c(n4)CCN(C(=O)CO)C5)nc32)CC1 (centres undefined) [AMG-925] | 1.1 | 0 | 0 |
| CCCc1cc(C)[nH]c(=O)c1CNC(=O)c1cc(-c2ccnc(N3CCN(C)CC3)c2)cc2c1cnn2C(C)C [GSK343] | 0 | 0 | 4.5 |
| Cc1cc(Nc2cc(N3CCN(C)CC3)nc(Sc3ccc(NC(=O)C4CC4)cc3)n2)n[nH]1 [Tozasertib] | 8.6 |  | 4.8 |
| C[C@@H]1CN(CC(=O)Nc2ccc3c(c2)Cc2cccc(-c4cc(=O)cc(N5CCOCC5)o4)c2S3)C[C@H](C)O1 | 6.4 |  | 5.3 |
| CNC(=O)c1cc(Oc2ccc(NC(=O)Nc3ccc(Cl)c(C(F)(F)F)c3)cc2)ccn1 [Sorafenib] | 0 | 0 | 0 |
| CC[C@H](C)C(=O)O[C@H]1C[C@H](O)C=C2C=C[C@H](C)[C@H](CC[C@@H](O)C[C@@H](O)CC(=O)O)[C@H]21 [Pravastatin] | 0 |  | 3.1 |
| COc1cccc2c1C(=O)c1c(O)c3c(c(O)c1C2=O)C[C@@](O)(C(=O)CO)C[C@@H]3O[C@H]1C[C@H](N)[C@H](O)[C@H](C)O1 [Doxorubicin] | 4.5 | 4.1 | 4.1 |
| COC(=O)N[C@@H](C)CNc1nccc(-c2cn(C(C)C)nc2-c2cc(Cl)cc(NS(C)(=O)=O)c2F)n1 [Encorafenib] | 0 |  | 1.6 |
| CC1(C)NC(=O)N(c2ccc([N+](=O)[O-])c(C(F)(F)F)c2)C1=O [Nilutamide] | 0 | 0 | 0 |
| O=C(O)CSc1cc(NS(=O)(=O)c2ccc(Br)cc2)c2ccccc2c1O [UMI-77] | 14.5 | 13.4 | 15.8 |
| CC(C)N(C[C@H]1O[C@@H](n2cnc3c(N)ncnc32)[C@H](O)[C@@H]1O)[C@H]1C[C@@H](CCc2nc3cc(C(C)(C)C)ccc3[nH]2)C1 [Pinometostat] | 0 | 2.6 | 0 |
